AC40 and activation (HDL uptake increase) data for seven compounds are collected here from PubChem BioAssay AID602191 (Broad Institute, 2012).

The test concerns the target Scavenger receptor class B member 1 (Mus musculus) (UniProt Q61009). Briefly: activators of SR-BI-mediated HDL uptake, dose response, cell-based, ldlA[mSR-BI] CHO, DiI fluorescence, cherry-pick (AID 602191).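 On AC40: potency of activators raising HDL uptake.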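 On activation (HDL uptake increase): 0% = median of DMSO wells and 100% = twice the DMSO signal.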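 On all read-outs here: cell fluorescence from internalized DiI-labeled HDL after washing.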 Particulars: ldlA[mSR-BI] CHO cells, 3 h; for activation (HDL uptake increase): at 35 µM (top of the series).

The source made the active and inactive calls.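 How the source made its calls: active means fitted curve reaches 40% activation at a concentration no higher than the top valid tested dose; inconclusive means flat fit between 30% and 70% activation, or poor fit; inactive means uptake decrease, flat fit within 30% of zero, the rest.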

Sequence of Scavenger receptor class B member 1 (Mus musculus) (Q61009 whole entry, looked up): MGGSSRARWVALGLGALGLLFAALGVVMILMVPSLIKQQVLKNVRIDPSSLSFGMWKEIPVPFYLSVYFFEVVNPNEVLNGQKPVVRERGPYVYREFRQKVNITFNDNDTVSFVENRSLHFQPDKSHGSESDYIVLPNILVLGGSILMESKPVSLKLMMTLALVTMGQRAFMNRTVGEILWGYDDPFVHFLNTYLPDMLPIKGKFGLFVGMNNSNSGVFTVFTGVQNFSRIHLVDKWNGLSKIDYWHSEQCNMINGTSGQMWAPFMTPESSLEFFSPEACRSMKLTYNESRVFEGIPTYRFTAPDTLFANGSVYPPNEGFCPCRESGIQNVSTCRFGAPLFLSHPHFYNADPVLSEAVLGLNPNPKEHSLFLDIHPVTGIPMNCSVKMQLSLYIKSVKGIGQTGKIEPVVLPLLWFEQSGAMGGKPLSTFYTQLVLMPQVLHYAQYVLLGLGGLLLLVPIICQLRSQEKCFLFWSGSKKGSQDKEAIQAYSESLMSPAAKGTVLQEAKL

`COc1ccc(CC(=O)N(C)Cc2ccc(C(C)(C)C)cc2)cc1S(=O)(=O)N1CCOCC1`: the AC40 was > 35 µM (inactive).

Take `CNC(=O)c1ccc(N(Cc2ccccc2C)S(C)(=O)=O)cc1`: the activation (HDL uptake increase) was -9.16% (inactive).

In the case of `COC(=O)CNC(=O)C12CC3CC(C1)CC(c1ccc(C)cc1)(C3)C2`, the activation (HDL uptake increase) is -4.62% (inactive).

Regarding `O=C(COc1ccc([N+](=O)[O-])cc1)NCc1cccnc1`, the activation (HDL uptake increase) was -4.82% (inactive).

For `O=C(C[C@H]1C[C@H](C(=O)N2CCOCC2)[C@@]2(CCC3CCCC3)c3[nH]c4ccc(Cl)cc4c3CCN2C1=O)NCc1ccco1`, the activation (HDL uptake increase) was -3.23% (inactive).

As for `CCN1CCN(C(=O)/C(=C/c2ccco2)NC(=O)c2ccccc2)CC1`, the activation (HDL uptake increase) was -3.29% (inactive).

As to `Cc1cccc(NC(=O)CN2CCN(C(=O)C3CCCO3)CC2)c1C` (configuration not stated), the activation (HDL uptake increase) was -0.486% (inactive).
